Data taken from patent US6828317B2, “Antimicrobial thiadiazinone derivatives and their application for treatment of bacterial infections” (Pharmacia & Upjohn Company, priority 2002, dated 2004).
≈ marks a conversion by molar mass, not a printed value.

Tests used:
H. influenzae 30063 = test: MIC by agar dilution, H. influenzae 30063; format: cell-based; settings: Haemophilus influenzae, Mueller Hinton agar, overnight at 35° C.
Description: (§1) The in vitro activity of compounds of the subject invention may be assessed by standard testing procedures such as the determination of minimum inhibitory concentration (MIC) by agar dilution as described in “Approved Standard. Methods for Dilution Antimicrobial Susceptibility Tests for Bacteria that Grow Aerobically,” 3rd ed., published 1993 by the National Committee for Clinical Laboratory standards, Villanova, Pa., USA. The in vitro MICs of test compounds may be determined by a standard agar dilution method. A stock drug solution of each analog is prepared in a preferred solvent, usually DMSO:H2O (1:3). Serial 2-fold dilutions of each sample are made using 1.0 ml aliquots of sterile distilled water. To each 1.0 ml aliquot of drug is added 9 ml of molten Mueller Hinton agar medium. The drug-supplemented agar is mixed, poured into 15×100 mm petri dishes, and allowed to solidify and dry prior to inoculation. Vials of each of the test microorganisms are maintained frozen in the vapor phase of a liquid nitrogen freezer. Test cultures are grown overnight at 35° C. on the medium appropriate for the microorganism. Colonies are harvested with a sterile swab, and cell suspensions are prepared in Trypticase Soy broth (TSB) to equal the turbidity of a 0.5 McFarland standard. A 1:20 dilution of each suspension is made in TSB. The plates containing the drug supplemented agar are inoculated with a 0.001 ml drop of the cell suspension using a Steers replicator, yielding approximately 10^4 to 10^5 cells per spot. The plates are incubated overnight at 35° C. Following incubation the Minimum Inhibitory Concentration (MIC μg/ml), the lowest concentration of drug that inhibits visible growth of the microorganism, is read and recorded.

S. aureus UC9213 = test: MIC by agar dilution, S. aureus UC9213; format: cell-based; settings: Staphylococcus aureus, Mueller Hinton agar, overnight at 35° C.
Description: as §1

S. pneumoniae UC9912 = test: MIC by agar dilution, S. pneumoniae UC9912; format: cell-based; settings: Streptococcus pneumoniae, Mueller Hinton agar, overnight at 35° C.
Description: as §1

| MIC (H. influenzae 30063) [µg/mL] | MIC (S. aureus UC9213) [µg/mL] | melting point [°C] | MIC (S. pneumoniae UC9912) [µg/mL] | SMILES |
| --- | --- | --- | --- | --- |
| 64 (≈ 151 µM) | 2 (≈ 4.71 µM) | 167 to 168 | 2 (≈ 4.71 µM) | CC(C)(C)OC(=O)NC[C@H]1CN(c2ccc(C3=NNC(=O)CS3)c(F)c2)C(=O)O1 [Example 20, N-{3-[3-Fluoro-4-(5-oxo-5,6-dihydro-4H-[1,3,4]thiadiazin-2-yl)-phenyl]-2-oxo-oxazolidin-5(S)-ylmethyl}-carbamic acid tert-butyl ester] |
| 2 (≈ 5.1 µM) | 2 (≈ 5.1 µM) | 239 to 240 | 0.125 (≈ 0.319 µM) | O=C1CSC(c2ccc(N3C[C@H](CNC(=O)C4CC4)OC3=O)cc2F)=NN1 [Example 16, Cyclopropanecarboxylic acid {3-[3-fluoro-4-(5-oxo-5,6-dihydro-4H-[1,3,4]thiadiazin-2-yl)-phenyl]-2-oxo-oxazolidin-5(S)-ylmethyl}-amide] |
|  |  | 157 to 158 |  | COC(=O)CN1N=C(c2ccc(N3C[C@H](CNC(C)=O)OC3=O)cc2F)SCC1=O [Example 33] |
| 2 (≈ 5.26 µM) | 1 (≈ 2.63 µM) | 192 to 193 | < 0.06 | CCC(=O)NC[C@H]1CN(c2ccc(C3=NNC(=O)CS3)c(F)c2)C(=O)O1 [Example 15, N-{3-[3-Fluoro-4-(5-oxo-5,6-dihydro-4H-[1,3,4]thiadiazin-2-yl)-phenyl]-2-oxo-oxazolidin-5(S)-ylmethyl}-propionamide] |
| 1 (≈ 2.73 µM) | 0.5 (≈ 1.36 µM) | 206 to 209 | < 0.06 | CC(=O)NC[C@H]1CN(c2ccc(C3=NNC(=O)CS3)c(F)c2)C(=O)O1 [Example 1, N-{3-[3-Fluoro-4-(5-oxo-5,6-dihydro-4H-[1,3,4]thiadiazin-2-yl)-phenyl]-2-oxo-oxazolidin-5(S)-ylmethyl}-acetamide] |
| 4 (≈ 10.5 µM) | 2 (≈ 5.23 µM) | 157 to 158 | 0.125 (≈ 0.327 µM) | O=C(CO)NC[C@H]1CN(c2ccc(C3=NNC(=O)CS3)c(F)c2)C(=O)O1 [Example 17, N-{3-[3-Fluoro-4-(5-oxo-5,6-dihydro-4H-[1,3,4]thiadiazin-2-yl)-phenyl]-2-oxo-oxazolidin-5(S)-ylmethyl}-2-hydroxyacetamide] |
| 4 (≈ 10.5 µM) | 1 (≈ 2.63 µM) | 205 to 206 | 0.25 (≈ 0.657 µM) | CC(=O)NC[C@H]1CN(c2ccc(C3=NNC(=O)[C@@H](C)S3)c(F)c2)C(=O)O1 [Example 3, N-{3-[3-Fluoro-4-(6(R)-methyl-5-oxo-5,6-dihydro-4H-[1,3,4]thiadiazin-2-yl)-phenyl]-2-oxo-oxazolidin-5(S)-ylmethyl}-acetamide] |
|  |  | 174 to 177 |  | CC(=O)NC[C@H]1CN(c2ccc(C3=NNC(=O)C(OC(C)=O)S3)c(F)c2)C(=O)O1 (stereo partly drawn) [Example 31, Acetic acid 2-{4-[5(S)-(acetylaminomethyl)-2-oxo-oxazolidin-3-yl]-2-fluorophenyl}-5-oxo-5,6-dihydro-4H-[1,3,4]thiadiazin-6-yl ester] |
| 32 (≈ 78.7 µM) | 2 (≈ 4.92 µM) | 214 to 215 | 0.5 (≈ 1.23 µM) | CC(=O)NC[C@H]1CN(c2ccc(C3=NNC(=O)C4(CCC4)S3)c(F)c2)C(=O)O1 [Example 8, N-{3-[3-Fluoro-4-(9-oxo-5-thia-7,8-diazaspiro[3.5]non-6-en-6-yl)-phenyl]-2-oxo-oxazolidin-5(S)-ylmethyl}-acetamide] |
| 4 (≈ 10.5 µM) | 1 (≈ 2.63 µM) | 200 to 202 | 0.25 (≈ 0.657 µM) | CC(=O)NC[C@H]1CN(c2ccc(C3=NNC(=O)[C@H](C)S3)c(F)c2)C(=O)O1 [Example 2, N-{3-[3-Fluoro-4-(6(S)-methyl-5-oxo-5,6-dihydro-4H-[1,3,4]thiadiazin-2-yl)-phenyl]-2-oxo-oxazolidin-5(S)-ylmethyl}-acetamide] |
|  |  | 201 to 203 |  | CC(=O)NC[C@H]1CN(c2ccc(C3=NNC(=O)C(C(C)C)S3)c(F)c2)C(=O)O1 (stereo partly drawn) [Example 7, N-{3-[3-Fluoro-4-(6-isopropyl-5-oxo-5,6-dihydro-4H-[1,3,4]thiadiazin-2-yl)-phenyl]-2-oxo-oxazolidin-5(S)-ylmethyl}-acetamide] |
| 8 (≈ 16.1 µM) | 1 (≈ 2.01 µM) | 144 to 145 | 0.25 (≈ 0.503 µM) | O=C(/C=C/c1ccc(/C=N/O)cc1)NC[C@H]1CN(c2ccc(C3=NNC(=O)CS3)c(F)c2)C(=O)O1 [Example 23, N-{3-[3-Fluoro-4-(5-oxo-5,6-dihydro-4H-[1,3,4]thiadiazin-2-yl)-phenyl]-2-oxo-oxazolidin-5(S)-ylmethyl}-3-[4-(hydroxyimino-methyl)-phenyl]-acrylamide] |
| 16 (≈ 40.6 µM) | 2 (≈ 5.07 µM) | 179 to 181 | 0.25 (≈ 0.634 µM) | CC(=O)NC[C@H]1CN(c2ccc(C3=NNC(=O)C(C)(C)S3)c(F)c2)C(=O)O1 [Example 4, N-{3-[4-(6,6-Dimethyl-5-oxo-5,6-dihydro-4H-[1,3,4]thiadiazin-2-yl)-3-fluorophenyl]-2-oxo-oxazolidin-5(S)-ylmethyl}-acetamide] |
|  |  | 218 to 220 |  | CC(=O)NC[C@H]1CN(c2ccc(C3=NNC(=O)C(F)S3)c(F)c2)C(=O)O1 (stereo partly drawn) [Example 10, N-{3-[3-Fluoro-4-(6-fluoro-5-oxo-5,6-dihydro-4H-[1,3,4]thiadiazin-2-yl)-phenyl]-2-oxo-oxazolidin-5(S)-ylmethyl}-acetamide] |
| 16 (≈ 36.2 µM) | 4 (≈ 9.04 µM) | 122 to 123 | 0.5 (≈ 1.13 µM) | CC(=O)NC[C@H]1CN(c2ccc(C3=NNC(=O)C(c4ccccc4)S3)c(F)c2)C(=O)O1 (stereo partly drawn) [Example 9, N-{3-[3-Fluoro-4-(5-oxo-6-phenyl-5,6-dihydro-4H-[1,3,4]thiadiazin-2-yl)-phenyl]-2-oxo-oxazolidin-5(S)-ylmethyl}-acetamide] |
| 1 (≈ 3.07 µM) | 0.125 (≈ 0.384 µM) | 224 to 227 | 0.25 (≈ 0.768 µM) | O=C1CSC(c2ccc(N3C[C@H](CO)OC3=O)cc2F)=NN1 [Example 34] |
| 1 (≈ 2.51 µM) | 0.25 (≈ 0.627 µM) | 158 to 161 | < 0.06 | CC(=S)NC[C@H]1CN(c2ccc(C3=NNC(=S)CS3)c(F)c2)C(=O)O1 [Example 26, N-{3-[3-Fluoro-4-(5-thioxo-5,6-dihydro-4H-[1,3,4]thiadiazin-2-yl)-phenyl]-2-oxo-oxazolidin-5(S)-ylmethyl}-thioacetamide] |
| > 64 | 1 (≈ 1.95 µM) |  | 0.06 (≈ 0.117 µM) | CO/N=C/c1ccc(/C=C/C(=O)NC[C@H]2CN(c3ccc(C4=NNC(=O)CS4)c(F)c3)C(=O)O2)cc1 [Example 24, N-{3-[3-Fluoro-4-(5-oxo-5,6-dihydro-4H-[1,3,4]thiadiazin-2-yl)-phenyl]-2-oxo-oxazolidin-5(S)-ylmethyl}-3-[4-(methoxyimino-methyl)-phenyl]-acrylamide] |
|  |  | 134 to 136 |  | CC(C)(C)OC(=O)NC[C@H]1CN(c2ccc(C3=NNC(=S)CS3)c(F)c2)C(=O)O1 [Example 28, N-{3-[3-Fluoro-4-(5-thioxo-5,6-dihydro-4H-[1,3,4]thiadiazin-2-yl)-phenyl]-2-oxo-oxazolidin-5(S)-ylmethyl}-carbamic acid tert-butyl ester] |
| 4 (≈ 10.5 µM) | 1 (≈ 2.62 µM) |  | 0.125 (≈ 0.327 µM) | COC(=O)NC[C@H]1CN(c2ccc(C3=NNC(=O)CS3)c(F)c2)C(=O)O1 [Example 19] |
